Source: PubChem BioAssay (NCI)
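Step 1: Grow cells in 96-well plates. Step 2: Expose to compound for 48 hours at 5 concentrations. Step 3: Interpolate endpoints linearly; if unreached, use highest concentration. GI50: concentration for 50% inhibition of growth. TGI: total growth inhibition.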

Tested on: MDA-MB-468 breast
Experiment: growth of human tumour cells (NCI), 48 h

Structure (SMILES) | GI50 | TGI
CC/C(=C(/c1ccc(/C=C/C(=O)O)cc1)c1ccc2[nH]ncc2c1)c1ccc(F)cc1Cl | 15100 nM | 42.8 µM
Cc1ccc(C(=O)N2C/C(=C/c3ccccc3)C(=O)/C(=C/c3ccccc3)C2)cc1 | 2230 nM | 10.7 µM
Oc1c(I)cc(Cl)c2cccnc12 | 2050 nM | 5.13 µM
Nc1ccn([C@@H]2S[C@H](CO)[C@@H](O)[C@@H]2F)c(=O)n1 | 3250 nM | > 88.6 µM
CCOC(=O)c1cc2cc(OCc3ccccc3)ccc2[nH]1 | > 100000 nM | > 100 µM
C=C(C)[C@@H]1CC[C@]2(C(=O)n3ccnc3)CC[C@]3(C)[C@H](CC[C@@H]4[C@@]5(C)CCCNC(C)(C)[C@@H]5CC[C@]43C)[C@@H]12 | 1900 nM | 3.53 µM
CCN(CC)Cc1cc(Nc2cc(C(F)(F)F)c(C#N)c3nc4ccccc4n23)ccc1O | 228 nM | 3.69 µM
CCN(CC)C(=S)SSCCO | 15000 nM | 28.9 µM
CC(C)C/C(=N\NC(=O)c1ccncc1)c1cc(Cl)ccc1O | 288 nM | 1.97 µM
COc1cc(/C=N/Nc2ccnc3cc(Cl)ccc23)cc(OC)c1O | 1650 nM | 3.28 µM
Cc1ccccc1CNc1c2ccccc2nc2ccccc12 | 1880 nM | 4.89 µM
Cc1ccc(O)cc1Nc1ccnc2cc(-c3ccccn3)ccc12 | 736 nM | 3.57 µM
Nc1n[nH]c2ccc([C@@H]3Nc4c(F)cc5[nH]ncc5c4[C@H]4C5CCC(C5)[C@@H]34)cc12 (some centres not stated) | 116 nM | 0.621 µM
COc1cc(OC)c(/C=C/C(=O)c2c(N)cc(OC)cc2OC)c(OC)c1 | 322 nM | 7.26 µM
COC(=O)C1=Nc2ccc(F)cc2/C1=C/c1sc(=S)[nH]c1O | 354 nM | 2.95 µM
CCN(CCNc1ccc(C)c2sc3cc(Cl)ccc3c(=O)c12)CC(C)(C)O | 3490 nM | 10.4 µM
O=C(Nc1cccc(-n2cc(-c3ccncc3)c(-c3ccc(O)c(Cl)c3)n2)c1)Nc1ccc(Cl)c(Cl)c1 | 1960 nM | 6.65 µM
Cc1n(Cc2ccc3ccccc3n2)cc[n+]1Cc1ccc2ccccc2c1 | 270 nM | 1.58 µM
N=C(N)c1ccc(OCCCCCOc2ccc(C(=N)N)cc2)cc1 | 466 nM | 5.83 µM
Oc1ccc(-c2[nH]c3ccccc3c2-c2nc3ccccc3o2)cc1 | 1360 nM | 5.98 µM
O=C1C2C(C(=O)N1CC[Se][Se]CCN1C(=O)C3C(C1=O)[C@H]1C=C[C@@H]3C1)[C@H]1C=C[C@@H]2C1 (some centres not stated) | 324 nM | 1.32 µM
N#Cc1cccc(C2C3=C(COC3=O)N(CCO)c3cc4c(cc32)CCC4)c1 (configuration not stated) | 115 nM | 

Structure (SMILES) | GI50 | TGI
CC1(C)N=C(N)N=C(N)N1c1ccc(OCCCCNC(=O)Nc2cccc(S(=O)(=O)F)c2)c(Cl)c1 | 3470 nM | > 100 µM
CN(C)CCS(=O)(=O)Nc1cc(-c2ccc3ncnc(Nc4ccc(F)c(Cl)c4)c3c2)cnc1Cl | 133 nM | 0.449 µM
CCc1c(C#N)c(SC(C(N)=O)c2ccccc2)nc(N2CCC(N)CC2)c1C#N (configuration not stated) | 3530 nM | 16.4 µM
OC(c1cc(-c2ccc(Cl)cc2)nc2c(Cl)cccc12)C1CCCCN1 (configuration not stated) | 1740 nM | 3.26 µM
CCc1ccc(C2=NN(c3ccc(S(C)(=O)=O)cc3)C(=O)CC2)cc1 | 4430 nM | 43.7 µM
C=CC[PH+](c1ccccc1)c1ccccc1.C=CC[PH+](c1ccccc1)c1ccccc1.[Pt+2].[S-]c1ncccn1.[S-]c1ncccn1 | 3060 nM | 13.9 µM
O=S(=O)(NCCCNc1nccc(-c2c(-c3cccc(F)c3)nc3occn23)n1)c1cccc2ccccc12 | 4860 nM | > 100 µM
CCN(CC)CCCNc1c2ccc(Cl)cc2nc2ccc(OC)cc12 | 71.1 nM | 2.71 µM
Cc1cc(-c2ccco2)cc(C)c1/C=C/c1cncc(-c2nn[nH]n2)c1 | > 25000 nM | > 25 µM
Nc1c(C(=O)Nc2ccccn2)sc2nc3c(cc12)CCCCCC3 | 435 nM | 7.13 µM
O=C(Nc1nc2c(s1)CCc1c-2c(Br)n(Cc2ccccc2)c1Br)c1ccccc1 | 8280 nM | > 100 µM
CN(C)c1ccc2c(c1)OC(N)=C(C#N)C2c1ccc2c(c1)CCCN2C (configuration not stated) | 1620 nM | 42.5 µM
O=C(/C=C/c1cccc(Oc2ccc(Cl)cc2)c1)c1ccccc1 | 101000 nM | 338 µM
CCOc1cc2c(cc1O)CC[C@@H]1[C@@H]2CC[C@]2(C)[C@@H](O)CC[C@@H]12 | 4960 nM | 31.8 µM
CS(=O)(=O)c1ccc2c(c1)c1c(n2C(=O)c2ccc(Cl)cc2)CCCC1 | 2090 nM | > 100 µM
CCN(CC)CCS(=O)(=O)CCNc1ccnc2cc(Cl)ccc12 | 711 nM | 1.91 µM
CCN(CC)C(=O)CCCCCn1c2ccccc2c2c3c(c4c5ccccc5[nH]c4c21)C(=O)N(O)C3=O | 5790 nM | > 100 µM
Cc1nn2c(-c3nc4cc(Cl)c(Cl)cc4[nH]3)c(-c3ccc(F)cc3)nc2s1 | > 29100 nM | > 100 µM
Cc1ccc(NC2=CC(=O)C(=O)c3ccccc32)c(C)c1 | 2560 nM | 8.61 µM
Cc1ccc(-c2nc(C(Cl)Cl)nc3cc(C)nn23)cc1 | 259 nM | 0.957 µM
COc1ncc2cc1NS(=O)(=O)c1cccc(c1)C(=O)NCC1=CC=C(S1)c1ncnc3c1SC2=C3C | 72 nM | 0.234 µM
CN(c1ccc(NC(=O)NCCN2CCOCC2)cc1)c1ccnc(Nc2ccc(CS(C)(=O)=O)cc2)n1 | 8210 nM | > 25 µM
